Assay results taken from patent US6984643B2, “2,5-substituted pyrimidine derivatives-CCR-3 receptor antagonists” (Roche Palo Alto LLC, priority 2002, dated 2006).

Molecular target: T1, CCR-3 receptor (Homo sapiens, UniProt P51677)
T1 construct: expressed in transfected cells; host or cells: L1.2 (murine pre-B lymphoma line)
T1 sequence (P51677 1-355): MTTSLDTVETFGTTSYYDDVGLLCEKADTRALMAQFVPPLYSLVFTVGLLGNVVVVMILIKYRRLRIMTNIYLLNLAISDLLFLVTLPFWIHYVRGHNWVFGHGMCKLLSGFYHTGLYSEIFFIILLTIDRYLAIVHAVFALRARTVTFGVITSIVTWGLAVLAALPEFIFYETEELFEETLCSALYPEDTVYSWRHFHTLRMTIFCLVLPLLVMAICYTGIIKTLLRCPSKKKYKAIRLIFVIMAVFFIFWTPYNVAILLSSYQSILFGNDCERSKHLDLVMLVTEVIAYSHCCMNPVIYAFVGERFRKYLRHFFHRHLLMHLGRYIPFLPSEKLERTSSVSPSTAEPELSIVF
Assay: CCR-3 Receptor Binding Assay in vitro (inhibition of 125I eotaxin binding to CCR-3 L1.2 transfectant cells)
Conditions: concentration reducing 125I-eotaxin binding to CCR-3 L1.2 transfected cells by 50%; read-out: CCR-3 IC50
Procedure: The CCR-3 antagonistic activity of the compounds of the invention was determined by their ability to inhibit the binding of ^125I eotaxin to CCR-3 L1.2 transfectant cells (see Ponath, P. D. et al., J. Exp. Med., Vol. 183, 2437-2448, (1996)).
The assay was performed in Costar 96-well polypropylene round bottom plates. Test compounds were dissolved in DMSO and then diluted with binding buffer (50 mM HEPES, 1 mM CaCl2, 5 mM MgCl2, 0.5% bovine serum albumin (BSA), 0.02% sodium azide, pH 7.24) such that the final DMSO concentration was 2%. Each well was filled with 25 μl of the test solution or only buffer with DMSO (control samples) followed by the addition of 25 μl of ^125I-eotaxin (100 pmol) (NEX314, New England Nuclear, Boston, Mass.) and 1.5×10^5 of the CCR-3 L1.2 transfected cells in 25 μl binding buffer. The final reaction volume was 75 μl.
After incubating the reaction mixture for 1 h at room temperature, the reaction was terminated by filtering the reaction mixture through polyethylenimine treated Packard Unifilter GF/C filter plate (Packard, Chicago, Ill.). The filters were washed four times with ice cold wash buffer containing 10 mM HEPES and 0.5M sodium chloride (pH 7.2) and dried at 65° C. for approximately 10 min. 25 μl/well of Microscint-20™ scintillation fluid (Packard) was added and the radioactivity retained on the filters was determined by using the Packard TopCount™.
The IC50 value (concentration of test compound required to reduce ^125I-eotaxin binding to the CCR-3 L 1.2 transfected cells by 50%) for compounds in Table I of the invention was between 0.02 and 200 μM, preferably between 0.02 and 10 μM.

SMILES	IC50 [nM]
O=C(CSc1ncc(-c2ccccc2)cn1)NCC1CCCN(Cc2ccc3c(c2)OCO3)C1 (centres unmarked) [Compound 41, N-(1-benzo[1,3]-dioxol-5-ylmethyl-piperidin-3-ylmethyl)-2-(5-phenyl-pyrimidin-2-ylsulfanyl)-acetamide]	1560
COc1ccc(-c2cnc(CCC(=O)NCC3CCCN(Cc4ccc5c(c4)CCC5)C3)nc2)cc1OC (centres unmarked) [Compound 34, 3-[5-(3,4-dimethoxy-phenyl)-pyrimidin-2-yl]-N-(1-indan-5-yl-methyl-piperidin-3-ylmethyl)-propion-amide]	994
